In patent publication US9120808B2 (NABRIVA THERAPEUTICS AG, priority 2009, dated 2015):

Tests used:
TEM-1 β-lactamase = TEM-1 β-lactamase (Escherichia coli, UniProt P62593); assay: Cell-free β-lactamase inhibition study (nitrocefin hydrolysis); assay type: biochemical; conditions: 10 min pre-incubation at 37° C., nitrocefin substrate
Experimental: (§1) Cell-Free-β-Lactamase Inhibition Study
(§2) Assays are performed with β-lactamases expressed in the pET system (Novagen, San Diego, Calif.) without signal peptides. They contain an N-terminal hexa-Histidine tag that is used for purification on Ni-NTA (Qiagen, Hilden, Germany). The compounds are prepared as 50 mM stocks in DMSO and diluted into buffer P1 (50 mM phosphate, pH 7) to a final concentration of 10% DMSO. All further dilutions are done in P2 (P1 with 10% DMSO). Enzyme and compound dilutions are pre-incubated for 10 min at 37° C. and the reaction is started with the addition of pre-warmed (37° C.) nitrocefin at a final concentration of […]. […] The initial velocity is determined and IC50 values are calculated using non-linear regression and sigmoidal dose response analysis with the PRISM 4.0 software (Graphpad Software Inc., San Diego, Calif.).

SHV-1 β-lactamase = SHV-1 β-lactamase (Klebsiella pneumoniae, UniProt P0AD64); assay: as above; assay type: biochemical; conditions: SHV-1; 10 min pre-incubation at 37° C., nitrocefin substrate; read-out: IC50
Chain of SHV-1 β-lactamase (P0AD64 whole entry, looked up): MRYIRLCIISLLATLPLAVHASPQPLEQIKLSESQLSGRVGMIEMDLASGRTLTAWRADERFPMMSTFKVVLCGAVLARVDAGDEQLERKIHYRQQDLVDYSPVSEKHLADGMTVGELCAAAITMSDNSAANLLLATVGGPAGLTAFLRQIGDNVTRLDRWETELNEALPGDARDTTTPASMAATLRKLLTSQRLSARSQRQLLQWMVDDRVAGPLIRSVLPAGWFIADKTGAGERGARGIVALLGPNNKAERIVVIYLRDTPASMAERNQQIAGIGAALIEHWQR
Experimental: as §1, §2

Chain of TEM-1 β-lactamase (P62593 whole entry, looked up): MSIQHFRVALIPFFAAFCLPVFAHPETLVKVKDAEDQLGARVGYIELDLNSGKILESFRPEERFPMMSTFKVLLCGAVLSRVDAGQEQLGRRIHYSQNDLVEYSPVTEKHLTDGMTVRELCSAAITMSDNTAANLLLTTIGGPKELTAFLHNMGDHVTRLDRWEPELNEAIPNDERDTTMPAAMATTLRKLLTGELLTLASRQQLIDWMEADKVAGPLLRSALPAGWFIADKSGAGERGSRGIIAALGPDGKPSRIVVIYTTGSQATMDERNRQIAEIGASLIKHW

Compound `C=CCC(C=O)=C1O[C@@H]2CC(=O)N2C1(CC=C)C(=O)OCc1ccccc1` (stereo partly drawn) [Example 3, (5R)-2-Allyl-3-[1-formyl-but-3-enylidene]-7-oxo-4-oxa-1-aza-bicyclo[3.2.0]heptane-2-carboxylic acid benzyl ester] has an IC50 (TEM-1 β-lactamase) of 8390 nM.
`C=CCC(C(=O)O)=C1O[C@@H]2CC(=O)N2C1C(=O)OCc1ccccc1` (stereo partly drawn) [Example 24, (5R)-3-(1-Carboxy-but-3-enylidene)-7-oxo-4-oxa-1-aza-bicyclo[3.2.0]heptane-2-carboxylic acid benzyl ester] gave an IC50 (TEM-1 β-lactamase) of 30.6 nM and an IC50 (SHV-1 β-lactamase) of 62.2 nM.
For `CC(=O)OCC=CCC1(C(=O)OCc2ccccc2)C(=CC=O)O[C@@H]2CC(=O)N21` (stereo partly drawn) [Example 11, (5R)-2-(4-Acetoxy-but-2-enyl)-7-oxo-3-[2-oxo-ethylidene]-4-oxa-1-aza-bicyclo[3.2.0]heptane-2-carboxylic acid benzyl ester], the IC50 (TEM-1 β-lactamase) was 7310 nM.
In the case of `O=C(O)C(CC=CCN(Cc1ccccc1)C(=O)OCc1ccccc1)=C1O[C@@H]2CC(=O)N2C1C(=O)OCc1ccccc1` (stereo partly drawn) [Example 58, (5R)-3-[5-(Benzyl-benzyloxycarbonyl-amino)-1-carboxy-pent-3-enylidene]-7-oxo-4-oxa-1-aza-bicyclo[3.2.0]heptane-2-carboxylic acid benzyl ester], the IC50 (TEM-1 β-lactamase) is reported as 1.4 nM and the IC50 (SHV-1 β-lactamase) is reported as 0.6 nM.
`CCCC(C(=O)O)=C1O[C@@H]2CC(=O)N2C1C(=O)OC` (stereo partly drawn) [Example 54, (5R)-3-(1-Carboxy-butylidene)-7-oxo-4-oxa-1-aza-bicyclo[3.2.0]heptane-2-carboxylic acid methyl ester] was tested, and the IC50 (TEM-1 β-lactamase) was 97 nM and the IC50 (SHV-1 β-lactamase) was 295 nM.
Compound `C=CCC(C(=O)O)=C1O[C@@H]2CC(=O)N2C1C(=O)OC` (stereo partly drawn) [Example 32, (5R)-3-(1-Carboxy-but-3-enylidene)-7-oxo-4-oxa-1-aza-bicyclo[3.2.0]heptane-2-carboxylic acid methyl ester] has an IC50 (TEM-1 β-lactamase) of 122 nM and an IC50 (SHV-1 β-lactamase) of 339 nM.
In the case of `O=C(OCc1ccccc1)C1C(=C2COC(CI)C2)O[C@@H]2CC(=O)N12` (stereo partly drawn) [Example 59, (5R)-3-[5-Iodomethyl-dihydro-furan-3-ylidene]-7-oxo-4-oxa-1-aza-bicyclo[3.2.0]heptane-2-carboxylic acid benzyl ester], the IC50 (TEM-1 β-lactamase) is reported as 4390 nM and the IC50 (SHV-1 β-lactamase) is reported as 3600 nM.
`O=CC=C1O[C@@H]2CC(=O)N2C1(C/C=C/c1ccccc1)C(=O)OCc1ccccc1` (single isomer, unassigned) [Example 6] was tested, and the IC50 (TEM-1 β-lactamase) was 2790 nM and the IC50 (SHV-1 β-lactamase) was 3950 nM.
In the case of `O=C(OCc1ccccc1)C1C(=C(CO)C/C=C/c2ccccc2)O[C@@H]2CC(=O)N12` (stereo partly drawn) [Example 39, (5R)-3-(1-Hydroxymethyl-4-phenyl-but-3-enylidene)-7-oxo-4-oxa-1-aza-bicyclo[3.2.0]heptane-2-carboxylic acid benzyl ester], the IC50 (TEM-1 β-lactamase) is reported as 4120 nM and the IC50 (SHV-1 β-lactamase) is reported as 5610 nM.
`O=C(O)C=C1O[C@@H]2CC(=O)N2C1(C/C=C/c1ccccc1)C(=O)OCc1ccccc1` (single isomer, unassigned) [Example 28] gave an IC50 (TEM-1 β-lactamase) of 45700 nM and an IC50 (SHV-1 β-lactamase) of 9320 nM.
`COC(=O)C1/C(=C2/CC(CI)OC2=O)O[C@@H]2CC(=O)N12` (stereo partly shown) [Mixture of Example 43 and Example 44] was tested, and the IC50 (SHV-1 β-lactamase) was 4.3 nM.
With `COC(=O)C1C(=C(C=O)C/C=C/c2ccccc2)O[C@@H]2CC(=O)N12` (stereo partly shown) [Example 13] the IC50 (TEM-1 β-lactamase) was 639 nM.
For `COC(=O)C(CCCc1ccccc1)=C1O[C@@H]2CC(=O)N2C1C(=O)OC` (stereo partly drawn) [Example 57, (5R)-3-(1-Methoxycarbonyl-4-phenyl-butylidene)-7-oxo-4-oxa-1-aza-bicyclo[3.2.0]heptane-2-carboxylic acid methyl ester], the IC50 (TEM-1 β-lactamase) was 10.6 nM and the IC50 (SHV-1 β-lactamase) was 22.6 nM.
Compound `COC(=O)C1(C/C=C/c2ccccc2)C(=CC=O)O[C@@H]2CC(=O)N21` (single isomer, unassigned) [Example 15] has an IC50 (TEM-1 β-lactamase) of 4270 nM and an IC50 (SHV-1 β-lactamase) of 4430 nM.
`O=CC(C/C=C/c1ccccc1)=C1O[C@@H]2CC(=O)N2C1C(=O)OCc1ccccc1` (stereo partly drawn) [Example 4, (5R)-3-[1-Formyl-4-phenyl-but-3-enylidene]-7-oxo-4-oxa-1-aza-bicyclo[3.2.0]heptane-2-carboxylic acid benzyl ester] showed an IC50 (TEM-1 β-lactamase) of 89 nM.
`CCCC(C(=O)O)=C1O[C@@H]2CC(=O)N2C1C(=O)O` (stereo partly drawn) [Example 51, (5R)-3-(1-Carboxy-butylidene)-7-oxo-4-oxa-1-aza-bicyclo[3.2.0]heptane-2-carboxylic acid] showed an IC50 (TEM-1 β-lactamase) of 254 nM and an IC50 (SHV-1 β-lactamase) of 436 nM.
`[N-]=[N+]=NCC1C/C(=C2\O[C@@H]3CC(=O)N3C2C(=O)OCc2ccccc2)C(=O)O1` (stereo partly drawn) [Example 48, (5R)-3-(5-Azidomethyl-2-oxo-dihydro-furan-3-ylidene)-7-oxo-4-oxa-1-aza-bicyclo[3.2.0]heptane-2-carboxylic acid benzyl ester] gave an IC50 (TEM-1 β-lactamase) of 2.4 nM and an IC50 (SHV-1 β-lactamase) of 4.2 nM.
Work on `O=C(O)C(C/C=C/c1ccccc1)=C1O[C@@H]2CC(=O)N2C1C(=O)OCc1ccccc1` (stereo partly drawn) [Example 26, (5R)-3-[1-Carboxy-4-phenyl-but-3-enylidene]-7-oxo-4-oxa-1-aza-bicyclo[3.2.0]heptane-2-carboxylic acid benzyl ester] yielded an IC50 (TEM-1 β-lactamase) of 9.2 nM and an IC50 (SHV-1 β-lactamase) of 36.3 nM.
With `CC(C)(C)C(=O)OCOC(=O)C1(C/C=C/c2ccccc2)C(=CC=O)O[C@@H]2CC(=O)N21` (stereo partly drawn) [Example 19, (5R)-7-oxo-3-(2-oxo-ethylidene)-2-(3-phenyl-allyl)-4-oxa-1-aza-bicyclo[3.2.0]heptane-2-carboxylic acid 2,2-dimethyl-propionyloxymethyl ester] the IC50 (TEM-1 β-lactamase) was 871 nM and the IC50 (SHV-1 β-lactamase) was 617 nM.
`CC1CC(=C2O[C@@H]3CC(=O)N3C2C(=O)O)C(=O)O1` (stereo partly drawn) [Example 50, (5R)-3-(5-Methyl-2-oxo-dihydro-furan-3-ylidene)-7-oxo-4-oxa-1-aza-bicyclo[3.2.0]heptane-2-carboxylic acid] gave an IC50 (TEM-1 β-lactamase) of 4.2 nM.
`CC(=O)OCC=CCC1(C(=O)OCc2ccccc2)C(=CC=O)O[C@@H]2CC(=O)N21` (stereo partly drawn) [Example 12, (5R)-2-(4-Acetoxy-but-2-enyl)-7-oxo-3-[2-oxo-ethylidene]-4-oxa-1-aza-bicyclo[3.2.0]heptane-2-carboxylic acid benzyl ester] was tested, and the IC50 (TEM-1 β-lactamase) was 5900 nM.
For `C=CCC(C=O)=C1O[C@@H]2CC(=O)N2C1C(=O)OCc1ccccc1` (stereo partly drawn) [Example 1, (5R)-3-(1-Formyl-but-3-enylidene)-7-oxo-4-oxa-1-aza-bicyclo[3.2.0]heptane-2-carboxylic acid benzyl ester], the IC50 (TEM-1 β-lactamase) was 66.6 nM.
`C=CCC1(C(=O)OCc2ccccc2)C(=CC=O)O[C@@H]2CC(=O)N21` (stereo partly drawn) [Example 2, (5R)-2-Allyl-7-oxo-3-[2-oxo-ethylidene]-4-oxa-1-aza-bicyclo[3.2.0]heptane-2-carboxylic acid benzyl ester] showed an IC50 (TEM-1 β-lactamase) of 945 nM.
Compound `CC(=O)OCC=CCC(C=O)=C1O[C@@H]2CC(=O)N2C1C(=O)OCc1ccccc1` (stereo partly drawn) [Example 10, (5R)-3-[5-Acetoxy-1-formyl-pent-3-enylidene]-7-oxo-4-oxa-1-aza-bicyclo[3.2.0]heptane-2-carboxylic acid benzyl ester] has an IC50 (TEM-1 β-lactamase) of 140 nM.
`C=CCC1(C(=O)OCc2ccccc2)/C(=C/CO)O[C@@H]2CC(=O)N21` (stereo partly drawn) [Example 40, (5R)-2-Allyl-3-[2-hydroxy-ethylidene]-7-oxo-4-oxa-1-aza-bicyclo[3.2.0]heptane-2-carboxylic acid benzyl ester] gave an IC50 (TEM-1 β-lactamase) of 23600 nM.
Work on `O=CC=C1O[C@@H]2CC(=O)N2C1(CC=CCO)C(=O)OCc1ccccc1` (single isomer, unassigned) [Example 8] yielded an IC50 (TEM-1 β-lactamase) of 5640 nM.
